Measurements published in PubChem BioAssay (NCI).
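Step 1: Grow cells in 96-well plates. Step 2: Expose to compound for 48 hours at 5 concentrations. Step 3: Interpolate endpoints linearly; if unreached, use highest concentration. GI50 is the concentration that inhibits growth by half.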 Calls of active or inactive are those of the source. Rule as the data show it: active = GI50 below about 0.43 µM; inactive = the rest.

Tests used:
Assay in all cases: growth of human tumour cells (NCI), 48 h
[1] = tested on: 786-0 renal
[2] = tested on: A498 renal
[3] = tested on: A549 NSCLC
[4] = tested on: ACHN renal
[5] = tested on: BT-549 breast
[6] = tested on: CAKI-1 renal
[7] = tested on: CCRF-CEM leukemia
[8] = tested on: COLO 205 colon
[9] = tested on: DU-145 prostate
[10] = tested on: EKVX NSCLC
[11] = tested on: HCT-116 colon
[12] = tested on: HCT-15 colon
[13] = tested on: HL-60(TB) leukemia
[14] = tested on: HOP-62 NSCLC
[15] = tested on: HS 578T breast
[16] = tested on: HT29 colon
[17] = tested on: IGROV1 ovarian
[18] = tested on: K-562 leukemia
[19] = tested on: KM12 colon
[20] = tested on: LOX IMVI melanoma
[21] = tested on: M14 melanoma
[22] = tested on: MALME-3M melanoma
[23] = tested on: MCF7 breast
[24] = tested on: MDA-MB-231 breast
[25] = tested on: MDA-MB-435
[26] = tested on: MOLT-4 leukemia
[27] = tested on: NCI-H226 lung
[28] = tested on: NCI-H23 lung
[29] = tested on: NCI-H460 lung
[30] = tested on: NCI-H522 lung
[31] = tested on: NCI/ADR-RES ovarian
[32] = tested on: OVCAR-3 ovarian
[33] = tested on: OVCAR-4 ovarian
[34] = tested on: OVCAR-5 ovarian
[35] = tested on: OVCAR-8 ovarian
[36] = tested on: PC-3 prostate
[37] = tested on: RPMI-8226 leukemia
[38] = tested on: RXF 393 renal
[39] = tested on: SF-268 CNS
[40] = tested on: SF-295 CNS
[41] = tested on: SF-539 CNS
[42] = tested on: SK-MEL-2 melanoma
[43] = tested on: SK-MEL-28 melanoma
[44] = tested on: SK-MEL-5 melanoma
[45] = tested on: SK-OV-3 ovarian
[46] = tested on: SN12C renal
[47] = tested on: SNB-19 CNS
[48] = tested on: SNB-75 CNS
[49] = tested on: SR leukemia
[50] = tested on: SW-620 colon
[51] = tested on: T-47D breast
[52] = tested on: TK-10 renal
[53] = tested on: U251 CNS
[54] = tested on: UACC-257 melanoma
[55] = tested on: UACC-62 melanoma
[56] = tested on: UO-31 renal

Measured: GI50

CS(C)(=O)=O
inactive: [1] | [2] 42 mM | [3] | [4] | [5] | [6] | [7] | [8] | [9] | [10] | [11] | [12] | [13] | [14] | [15] | [16] | [17] | [18] | [19] | [20] | [21] | [22] | [23] | [24] | [25] | [26] | [27] | [28] | [29] | [30] | [31] | [32] | [33] | [34] | [35] | [36] | [37] | [38] | [39] | [40] | [41] | [42] | [43] | [44] | [45] | [46] | [47] | [48] | [49] | [50] | [51] | [52] | [53] | [54] | [55] | [56]
